Reference: patent US20020028938A1, “Prostaglandin endoperoxide H synthase biosynthesis inhibitors” (priority 1997, published 2002)

SMILES	melting point
C[Se](=O)(=O)c1ccc(-c2cnn(-c3ccc(F)cc3)c(=O)c2-c2ccc(F)cc2)cc1	110 to 150 °C
CS(=O)(=O)c1ccc(-c2cn[nH]c(=O)c2-c2ccc(F)cc2)cc1 [Example 11, 4-(4-Fluorophenyl)-5-[4-(methylsulfonyl)phenyl]-3(2H)-pyridazinone]	255 to 256 °C
CS(=O)(=O)c1ccc(-c2cnn(Cc3ccccn3)c(=O)c2-c2ccc(F)cc2)cc1 [Example 27, 2-(2-Pyridylmethyl)-4-(4-fluorophenyl)-5-[4-(methylsulfonyl)phenyl]-3(2H)-pyridazinone]	182 to 184 °C
CS(=O)(=O)c1ccc(-c2cnn(Cc3ccncc3)c(=O)c2-c2ccc(F)cc2)cc1 [Example 28, 2-(4-Pyridylmethyl)-4-(4-fluorophenyl)-5-[4-(methylsulfonyl)phenyl]-3(2H)-pyridazinone]	153 to 156 °C
CS(=O)(=O)c1ccc(-c2cnn(Cc3cccnc3)c(=O)c2-c2ccc(F)cc2)cc1 [Example 29, 2-(3-Pyridylmethyl)-4-(4-fluorophenyl)-5-[4-(methylsulfonyl)phenyl]-3(2H)-pyridazinone]	160 to 161 °C
CS(=O)(=O)c1ccc(-c2cnn(Cc3ccc4cc(F)ccc4n3)c(=O)c2-c2ccc(F)cc2)cc1 [Example 30, 2-(6-Fluoroquinolin-2-ylmethyl)-4-(4-fluorophenyl)-5-[4-(methylsulfonyl)phenyl]-3(2H)-pyridazinone]	116 to 119 °C
CCN(CC)c1ccc(C(=O)Cn2ncc(-c3ccc(S(C)(=O)=O)cc3)c(-c3ccc(F)cc3)c2=O)cc1 [Example 44, 2-(4-Diethylaminophenacyl)-4-(4-fluorophenyl)-5-[4-(methylsulfonyl)phenyl]-3(2H)-pyridazinone]	105 to 108 °C
CS(=O)(=O)c1ccc(-c2cnn(CC(=O)c3ccc(Cl)cc3)c(=O)c2-c2ccc(F)cc2)cc1 [Example 47, 2-(4-Chlorophenacyl)-4-(4-fluorophenyl)-5-[4-(methylsulfonyl)phenyl]-3(2H)-pyridazinone]	186 to 188 °C
CS(=O)(=O)c1ccc(-c2cnn(CC(=O)c3ccc(C#N)cc3)c(=O)c2-c2ccc(F)cc2)cc1 [Example 49, 2-(4-Cyanophenacyl)-4-(4-fluorophenyl)-5-[4-(methylsulfonyl)phenyl]-3(2H)-pyridazinone]	188 to 189 °C
CS(=O)(=O)c1ccc(-c2cnn(CCc3ccccc3)c(=O)c2-c2ccc(F)cc2)cc1 [Example 51, 2-Phenethyl-4-(4-fluorophenyl)-5-[4-(methylsulfonyl)phenyl]-3(2H)-pyridazinone]	170 to 171 °C
CS(=O)(=O)c1ccc(-c2cnn(CC(=O)c3ccc(OC(F)(F)F)cc3)c(=O)c2-c2ccc(F)cc2)cc1 [Example 55, 2-(4-Trifluoromethoxyphenacyl)-4-(4-fluorophenyl)-5-[4-(methylsulfonyl)phenyl]-3(2H)-pyridazinone]	160 to 161 °C
CS(=O)(=O)c1ccc(-c2cnn(CC(=O)c3csc4ccccc34)c(=O)c2-c2ccc(F)cc2)cc1 [Example 57, 2-[2-(Benzo[b]thien-3-yl)-2-oxoethyl]-4-(4-fluorophenyl)-5-[4-(methylsulfonyl)phenyl]-3(2H)-pyridazinone]	183 to 184 °C
CC(C)(C)C(=O)Cn1ncc(-c2ccc(S(C)(=O)=O)cc2)c(-c2ccc(F)cc2)c1=O [Example 59, 2-(3,3-Dimethyl-2-oxobutyl)-4-(4-fluorophenyl)-5-[4-(methylsulfonyl)phenyl]-3(2H)-pyridazinone]	168 to 170 °C
CS(=O)(=O)c1ccc(-c2cnn(Cc3cc4ccccc4s3)c(=O)c2-c2ccc(F)cc2)cc1 [Example 61, 2-(2-Benzo[b]thienylmethyl)-4-(4-fluorophenyl)-5-[4-(methylsulfonyl)phenyl]-3(2H)-pyridazinone]	93 to 96 °C
Cc1n[nH]c(=O)c(-c2ccc(F)cc2)c1-c1ccc(S(C)(=O)=O)cc1 [Example 63, 4-(4-Fluorophenyl)-5-[4-(methylsulfonyl)phenyl]-6-methyl-3(2H)-pyridazinone]	290 °C (dec.)
NS(=O)(=O)c1ccc(-c2cnn(CC(F)(F)F)c(=O)c2Oc2ccc(F)cc2)cc1 [Example 71, 2-(2,2,2-Trifluoroethyl)-4-(4-fluorophenoxy)-5-[4-(aminosulfonyl)phenyl]-3(2H)-pyridazinone]	150 to 152 °C
CS(=O)(=O)c1ccc(-c2cnn(Cc3ccccc3)c(=O)c2Cl)cc1 [Example 78, 2-Benzyl-4-chloro-5-[4-(methylsulfonyl)phenyl]-3(2H)-pyridazinone]	166 to 167 °C
Cc1ccc(-c2c(-c3ccc(S(C)(=O)=O)cc3)cnn(CC(F)(F)F)c2=O)cc1 [Example 79, 2-(2,2,2-Trifluoroethyl)-4-(4-methylphenyl)-5-[4-(methylsulfonyl)phenyl]-3(2H)-pyridazinone]	154 to 156 °C
Cc1ccsc1-n1ncc(-c2ccc(S(C)(=O)=O)cc2)c(-c2ccc(F)cc2)c1=O [Example 95, 2-(3-Methyl-2-thienyl)-4-(4-fluorophenyl)-5-[4-(methylsulfonyl)phenyl]-3(2H)-pyridazinone]	215 to 217 °C

SMILES	melting point
CS(=O)(=O)c1ccc(-c2cnn(-c3cccc(C(F)(F)F)c3)c(=O)c2-c2ccc(Cl)cc2)cc1 [Example 101, 2-(3-Trifluoromethylphenyl)-4-(4-chlorophenyl)-5-[4-(methylsulfonyl)phenyl]-3(2H)-pyridazinone]	103 to 105 °C
CS(=O)(=O)c1ccc(-c2cnn(Cc3cccc([N+](=O)[O-])c3)c(=O)c2-c2ccc(F)cc2)cc1 [Example 116, 2-(3-Nitrobenzyl)-4-(4-fluorophenyl)-5-[4-(methylsulfonyl)phenyl]-3(2H)-pyridazinone]	156 to 157 °C
NS(=O)(=O)c1ccc(-c2cnn(C3CC=CCC3)c(=O)c2-c2ccc(F)cc2)cc1 (stereo not shown) [Example 126]	206 to 208 °C
CC1CCCC1n1ncc(-c2ccc(S(C)(=O)=O)cc2)c(-c2ccc(F)cc2)c1=O (stereo not shown) [Example 131, 2-(2-Methylcyclopentyl)-4-(4-fluorophenyl)-5-[4-(methylsulfonyl)phenyl]-3(2H)-pyridazinone]	180 to 181 °C
NS(=O)(=O)c1ccc(-c2cnn(Cc3c(F)cc(F)cc3F)c(=O)c2-c2ccc(F)cc2)cc1 [Example 151, 2-(2,4,6-Trifluorobenzyl)-4-(4-fluorophenyl)-5-[4-(aminosulfonyl)phenyl]-3(2H)-pyridazinone]	201 to 203 °C
CS(=O)(=O)c1ccc(-c2cnn(-c3ccc([N+](=O)[O-])cc3)c(=O)c2-c2ccc(F)cc2)cc1 [Example 157, 2-(4-Nitrophenyl)-4-(4-fluorophenyl)-5-[4-(methylsulfonyl)phenyl]-3(2H)-pyridazinone]	110 to 116 °C
CC(C)(C)c1ccc(-n2ncc(-c3ccc(S(C)(=O)=O)cc3)c(-c3ccc(F)cc3)c2=O)cc1 [Example 159, 2-(4-t-Butylphenyl)-4-(4-fluorophenyl)-5-[4-(methylsulfonyl)phenyl]-3(2H)-pyridazinone]	132 to 136 °C
CS(=O)(=O)c1ccc(-c2cnn(-c3ccccc3C=O)c(=O)c2-c2ccc(F)cc2)cc1 [Example 163, 2-(2-Formylphenyl)-4-(4-fluorophenyl)-5-[4-(methylsulfonyl)phenyl]-3(2H)-pyridazinone]	234 to 236 °C
Cc1cc(C)cc(-n2ncc(-c3ccc(S(C)(=O)=O)cc3)c(-c3ccc(F)cc3)c2=O)c1 [Example 170, 2-(3,5-Dimethylphenyl)-4-(4-fluorophenyl)-5-[4-(methylsulfonyl)phenyl]-3(2H)-pyridazinone]	130 to 134 °C
CS(=O)(=O)c1ccc(-c2cnn(-c3ccc(C(F)(F)F)cc3)c(=O)c2-c2ccc(F)cc2)cc1 [Example 174, 2-(4-Trifluoromethylphenyl)-4-(4-fluorophenyl)-5-[4-(methylsulfonyl)phenyl]-3(2H)-pyridazinone]	171 to 173 °C
Cc1ccc(-n2ncc(-c3ccc(S(C)(=O)=O)cc3)c(-c3ccc(F)cc3)c2=O)cc1 [Example 177, 2-(4-Methylphenyl)-4-(4-fluorophenyl)-5-[4-(methylsulfonyl)phenyl]-3(2H)-pyridazinone]	190 to 192 °C
CS(=O)(=O)c1ccc(-c2cnn(-c3ccsc3)c(=O)c2-c2ccc(F)cc2)cc1 [Example 179, 2-(3-Thienyl)-4-(4-fluorophenyl)-5-[4-(methylsulfonyl)phenyl]-3(2H)-pyridazinone]	200 to 202 °C
COc1ccc(-n2ncc(-c3ccc(S(C)(=O)=O)cc3)c(-c3ccc(F)cc3)c2=O)cc1F [Example 184, 2-(3-Fluoro-4-methoxyphenyl)-4-(4-fluorophenyl)-5-[4-(methylsulfonyl)phenyl]-3(2H)-pyridazinone]	97 to 101 °C
CS(=O)(=O)c1ccc(-c2cnn(-c3ccc(S(N)(=O)=O)cc3)c(=O)c2-c2ccc(F)cc2)cc1 [Example 186, 2-[4-(Aminosulfonyl)phenyl]-4-(4-fluorophenyl)-5-[4-(methylsulfonyl)phenyl]-3(2H)-pyridazinone]	213 to 216 °C
CS(=O)(=O)c1ccc(-c2cnn(-c3ccc(F)cc3)c(=O)c2COc2ccccc2)cc1 [Example 196, 2-(4-Fluorophenyl)-4-phenoxymethyl-5-[4-(methylsulfonyl)phenyl]-3(2H)-pyridazinone]	42 to 75 °C
CC(C)(C)SCc1c(-c2ccc(S(C)(=O)=O)cc2)cnn(-c2ccc(F)cc2)c1=O [Example 197, 2-(4-Fluorophenyl)-4-(t-butylthiomethyl)-5-[4-(methylsulfonyl)phenyl]-3(2H)-pyridazinone]	50 to 70 °C
CSc1ccc(-c2cnn(-c3ccc(F)cc3)c(=O)c2OC(C)C)cc1 [Example 199, 2-(4-Fluorophenyl)-4-(2-propoxy)-5-[4-(methylthio)phenyl]-3(2H)-pyridazinone]	135 to 137 °C
CC(C)Oc1c(-c2ccc(S(C)(=O)=O)cc2)cnn(-c2ccc(F)cc2)c1=O [Example 200, 2-(4-Fluorophenyl)-4-(2-propoxy)-5-[4-(methylsulfonyl)phenyl]-3(2H)-pyridazinone]	160 to 162 °C
